# Test results published in US7384657B2, “Composition of natural herb extract for treating cardiovascular disease and its method of preparation thereof” (priority 2004, dated 2008).
# Entries after “also recorded” stand apart in the source; their conditions may differ.
# Key:
# [1] = Tanshinone bile excretion and intrahepatic transformation; assay type: in vivo, rats
# Procedure: The experimental animal is male rats each weighs 350-400 g. Intraperitoneal anesthesia with 10% of 1 g/kg malarin is employed. Insert it into the common bile duct with infantile scalp needle. After it is fixed, collect bile, for 1 hour quantity, to be used as blank contrast. Small amount of dimethyl formamide added to the medicine. And then, 1% carboxymethyl cellulose is diluted to 10 mg/ml. Administer to the duodenum and followed by scheduled fixed quantity of bile collection. The bile stays overnight in the fridge. Abstract twice with chloroform and combine with chloroform liquid. Conduct water bath and dry it by evaporation. Keep it in the desiccators. Before the test, fixed quantity dilution is conducted by using 50 ml chloroform and followed by high pressure liquid's separation and fixation of quantity. The change of Tanshinone in the liver hemogenate: After a larger male […], weighs 160 g, is anesthetized, its liver is taken and weighed. Use 0.15M potassium chloride and 0.24M amide to manufacture hemogenate. Use double-deck gauze for filtrating. Again, with the above-mentioned solution, dilute the filtrate to every 10 ml which equals to the 6 g weight of the liver tissue. Add 4 ml of pH 7.4 phosphoric buffer solution and 2 ml liver hemogenate to the 100 ml conical flask. 1 mg specimen of Tanshinone dissolves in 95% of 0.2 ml ethanol. 0.2 ml of 95% ethanol liquid, which contains no tashinone, is added to the control group. Keep it warm at 37° C. for 2 hours. When the reaction ceases, use 12 ml chloroform to extract twice separately. Merge with the extract, and conduct water bath and dry it by evaporation. Before the test, the specimen is dissolved with 100 ml chloroform. Use the thin layer for separating and quantity fixing [silica-CMC thin layer; developer is benzene-acetone (95:5)]. […] The peak of excretion takes place in about 3 hours after the administration. […] Quantity of Tanshinone IIA in the bile excretion from animal of such group is 5 to 10 times higher than the Tanshinone IIA group. […]
# [2] = puerarin aglycone, left ventricular function index; assay type: in vivo; details: dog
# Excerpt: Study proves puerarin is able to mitigate the angina pectoris, contracted, remarkably and improve the ischemic electrocardiogram. It reduces the myocardial oxygen consumption. Puerarin can slow down the rate of the heart pulsation and enhance the myocardial systolic power. […] Puerarin is able to outstandingly reduce the tension-time index (TTI) and the ascending rate of the left ventricular pressure. The effect of puerarin on ischemic myocardium is reducing the resistance of the coronary artery's lateral branch. Puerarin is able to mitigate clearly the PG angina pectoris and improve the ischemic electrocardiogram. […] It enables the reduction of coronary artery's resistance and the increase of coronary artery's flow volume. Thus, it is advantageous to the improvement of balance of supply and need. And also, it has the obvious effect on resisting the arrhythmia.
# [3] = solubility
# Procedure: Matrine is also called matricaria. Its molecular formula is C15H24N2O and its molecular weight is 248.36. It has four isomers: α, β, γ, and δ isomers. α-matrine is the one commonly seen. It is a needle or rhombohedral crystal, having a melting point 76° C. and [α]D+39.1° (H2O).
# Oxymatrine has a molecular formula C15H24N2O2 and a molecular weight 264.36. It is a colorless columnar crystal (Me2CO), melting point 162° C. (hydrate), 207° C. (anhydrate), [α]D+47.7° (C2H5OH). […] It can change to matrine through reaction with SO2.
# [4] = tested on: isolated guinea pig's right and left atrium; assay: isolated guinea pig's atria
# Excerpt: The effect of alkaloids on heart function is studied. […] Furthermore, it presents dosage dependent relation. The function of its negative frequency, positive inotropic action and negative maximum driving force (MDF) appears to be linear correlation. Matrine is able to inhibit the aconitine to induce the rats's left atrial automatic rhythmicity effect, or, prolong the aconitine to induce the latent period's auto-rhythmicity or slow down its initial frequency. Also, it is able to heighten the ouabin to induce the guinea pig's right atrial arrhythmia and the adrenal gland injection to induce the auto-consistency of guinea pig's left atrium. Moreover, it has the enhancement effect on the positive inotropic action of ouabin.
# In fact, all of them are dosage dependence relation. […] It clearly prolongs inducement of the latent period of auto-rhythmicity and slows down the inducement of auto-rhythmicity's initial frequency. It is also able to raise ouabin to induce the isolated guinea pig's right atrial arrhythmia and the adrenal gland inducing the isolated guinea pig's left atrial auto-rhythmicity's consistency.
# [5] = pharmacokinetics of oxymatrine and matrine in mice; details: mouse, in vivo
# [6] = subcutaneous injection; cited from earlier work
# [7] = tested on: isolated rats's right atrium; assay: isolated rats's right atrium
# Excerpt: (§1) It is antagonistic to the acceleration of heart rate induced by isopropylnoradrenaline.
# [8] = intramuscular matrine crystal in dog
# Procedure: Intramuscular injection of matrine crystal 200 mg/kg given to the dog. […] Dog is administrated with daily intramuscular injection 0.5 g. […] 1-3 treatment courses are carried out altogether.
# [9] = intravenous matrine in rats: arrhythmia and ECG; assay type: in vivo
# Excerpt: as §1
# [10] = intravenous matrine injection in cat; assay type: in vivo; details: 1 mg/kg i.v.
# Excerpt: The curative effect of matrine upon the premature heartbeat, caused by various reasons, is relatively better. It is partially effective on the supraventricular arrhythmia. In clinical study, matrine's tablet is employed to treat 167 cases of arrhythmia.
compound,measurement,setting,value
C[C@H]1COC2=C1C(=O)C(=O)c1c2ccc2c1CCCC2(C)C [latent Tanshinone],transformation in the liver,"[1]; rat, in vivo",can transform into Tanshinone IIA
O=c1c(-c2ccc(O)cc2)coc2cc(O)ccc12 [puerarin aglycone],lowering of left ventricular function index,[2],14.3%
Matrine,solubility,[3],"soluble in water, benzene, chloroform, ether and carbon sulfide and nearly insoluble in petroleum ether"
same,left atrial maximum driving force (MDF),[4],reduces the left atrial maximum driving force
same,right atrial systolic power,[4],increases the right atrial systolic power
same,aconitine-induced left atria automatic rhythmicity,[4]; 3 μmol/L,significantly inhibits
same,automatic frequency of right atrium,[4]; dosage dependent,slow down the automatic frequency of guinea pig's right atrium; also recorded: obvious negative frequency effect
same,gastrointestinal absorption,[5],easier to be absorbed by the gastrointestinal tract
same,LD50,[6],297 ± 18 mg/kg
same,calcium-antagonism effect,[7],no calcium-antagonism effect
same,right atrial spontaneous frequency,[7],clearly slows down
same,abnormal phenomenon,"[8]; 200 mg/kg intramuscular, 6 hours of observation",no abnormal phenomenon except slightly being quiet
same,"mental state, activity condition and hemogram","[8]; 0.5 g daily intramuscular, 14 days",no apparent abnormal phenomenon
same,pathologic examination of the myocardium,"[8]; 0.5 g daily, 13-day courses, 1-3 courses",no obvious change
same,heart rate,[9]; 18.75 mg/kg,heart rate slows down clearly
same,"arrhythmia caused by aconitine, barium chloride and ligation of coronary artery",[9]; i.v.,significantly able to resist the arrhythmia
same,blood flow capacity of the coronary artery,[10],increases
same,heart rate,[10],slowdown of cat's heart rate emerges
Tanshinone,time of peak of bile excretion,[1]; duodenal administration,about 3 hours
same,time until Tanshinone is found in the bile,[1]; duodenal administration,in about an hour
